The text below walks through data of patent US10851115B2, “Heterocyclic compounds as RSV inhibitors” (Enanta Pharmaceuticals, Inc., priority 2017, dated 2020).

This assay has as its system Human RSV-A (“Long” strain). As to the kind of experiment: RSV in vitro cytoprotection assay in HEp-2 cells (ATPlite readout). It counts as cell-based. The conditions noted are these: human respiratory syncytial virus, 96 h; HEp-2 cells, 4-day incubation, ATPlite; read-out: Human RSV-A (“Long” strain) EC50. The text has this:
RSV is a single stranded negative sense RNA virus that causes respiratory tract infections which can be dangerous to infants, the elderly, and immunosuppressed individuals. Currently there is no vaccine, and therapeutic options are both costly and of limited effectiveness. These approved treatments are Ribavirin, and Palivizumab/Synagis (a monoclonal antibody). RSV has two genotypes, A and B, which differ primarily in the structure of the virus' surface “G” attachment protein. Our current primary screen focusses on RSV-A and uses an in vitro cytoprotection assay where compounds are added in 2-fold dilutions to cells which are then subjected to fully replicative viral particles. Cell viability is measured several days later along with separate measurements of compound cytotoxicity. This report focuses on the results of our most recent screening of compounds.
HEp-2 cells, (originally derived from tumors grown in irradiated-cortisonised weanling rats that had been injected with epidermoid carcinoma tissue from a person's larynx, but later found to be indistinguishable from HeLa cells by PCR DNA analysis), were used for the culturing of genotype A, “Long” strain RSV. Flasks were inoculated with RSV and viral stocks were collected once cytopathic effect (CPE) was greater than 90%. Viral stocks in 25% sucrose media were snap frozen using liquid nitrogen to increase viral stability. Viral stock titers were quantified by tissue culture infectious dose 50% (TCID50) using 8,000 cells per well and 3-fold viral dilutions across a 96-well plate, cultured for 4 days.
Following extensive parameter testing, the final assay is run as follows: HEp-2 cells are seeded into the inner 60 wells of a 96-well plate at 8,000 cells per well in a volume of 50 μL using Growth Media (DMEM without phenol red, 1% L-Glut, 1% Penn/Strep, 1% nonessential amino acids, 10% FBS). 2-Fold serial dilutions of control and test compounds are added to the wells in duplicate in a total volume of 25 μL. Viral stock is then added to the wells in a volume of 25 μL, bringing the total volume of each well to 100 μL. Each 96-well plate has a control column of 6 wells with cells and virus but no compound (negative control, max CPE), a column with cells but no compound or virus (positive control, minimum CPE), and a column with no cells or virus or compound (background plate/reagent control). The control wells with cells but no virus are given an additional 25 uL of growth media containing an equal quantity of sucrose as those wells receiving the viral stock in order to keep consistent in media and volume conditions. The outer wells of the plate are filled with 125 μL of growth media to act as a thermal and evaporative moat around the test wells. Following a 4-day incubation period, the plates are read using ATPlite (50 uL added per well), which quantifies the amount of ATP (a measure of cell health) present in each well. Assay plates are read using the Envision luminometer. In parallel, cytotoxicity is examined on an additional 96-well plate treated in an identical manner, but substituting the 25 μL of viral stock for 25 μL of growth media. […] EC50 ranges are as follows: A<0.01 μM; B 0.01-0.05 μM; C>0.05 μM.
Usually EC50 stands for the midpoint of the concentration-response curve. Regarding `Cc1ccc(C(=O)Nc2ccc(C(=O)N3CCc4cc(C(=O)Nc5c(C)cccc5F)sc4-c4ncccc43)cc2)c(N2CC3(CCOCC3)C2)n1` [Example 41], the EC50 was below 10 nM.

With `Cc1ccc(C(=O)Nc2ccc(C(=O)N3CCc4cc(-c5nc6ccccc6[nH]5)sc4-c4ncccc43)cc2)c(N2CC3(CCOCC3)C2)n1` [Example 42], the EC50 was below 10 nM.

For `Cc1ccc(C(=O)Nc2ccc(C(=O)N3CCc4cc(-c5nc6cccc(Cl)c6[nH]5)sc4-c4ncccc43)cc2)c(N2CC3(CCOCC3)C2)n1` [Example 43], the EC50 was in the range of 10 to 50 nM.

For `Cc1ccc(C(=O)Nc2ccc(C(=O)N3CCc4cc(C(=O)Nc5c(F)cccc5Cl)sc4-c4ncccc43)cc2)c(N2CC3(CCOCC3)C2)n1` [Example 44], the EC50 is below 10 nM.

As to `Cc1ccc(C(=O)Nc2ccc(C(=O)N3CCc4cc(C(=O)Nc5c(F)cccc5C(F)(F)F)sc4-c4ncccc43)cc2)c(N2CC3(CCOCC3)C2)n1` [Example 45], the EC50 is below 10 nM.

Regarding `Cc1ccc(C(=O)Nc2ccc(C(=O)N3CCc4cc(-c5nc6cccc(F)c6[nH]5)sc4-c4ncccc43)cc2)c(N2CC3(CCOCC3)C2)n1` [Example 46], the EC50 was below 10 nM.

As for `Cc1cnc(N2CC3(CCOCC3)C2)c(C(=O)Nc2ccc(C(=O)N3CCc4cc(C(=O)Nc5c(F)cccc5F)sc4-c4ncccc43)cc2F)c1` [Example 47], the EC50 is 10 to 50 nM.

On to `Cc1cccc(F)c1NC(=O)c1cc2c(s1)-c1cccnc1N(C(=O)c1ccc(NC(=O)c3cccnc3N3CC4(CCOCC4)C3)cc1)CC2` [Example 50], for which the EC50 was above 50 nM.

Regarding `O=C(Nc1c(F)cccc1F)c1cc2c(s1)-c1cnccc1N(C(=O)c1ccc(NC(=O)c3cccnc3N3CC4(CCOCC4)C3)cc1)CC2` [Example 51], the EC50 lay in the range of 10 to 50 nM.

`O=C(Nc1c(F)cc(F)cc1Cl)c1cc2c(s1)-c1cnccc1N(C(=O)c1ccc(NC(=O)c3cccnc3N3CC4(CCOCC4)C3)cc1)CC2` [Example 52]: the EC50 is 10 to 50 nM.

As to `O=C(Nc1ccc(C(=O)N2CCc3cc(-c4nc5ccccc5[nH]4)sc3-c3cnccc32)cc1)c1cccnc1N1CC2(CCOCC2)C1` [Example 53], the EC50 is above 50 nM.

Consider `O=C(Nc1ccc(C(=O)N2CCc3cc(-c4nc5ccccc5[nH]4)sc3-c3ncc(F)cc32)cc1)c1cccnc1N1CC2(CCOCC2)C1` [Example 54], for which the EC50 was 10 to 50 nM.

With `O=C(Nc1c(F)cccc1F)c1cc2c(s1)-c1ncc(F)cc1N(C(=O)c1ccc(NC(=O)c3cccnc3N3CC4(CCOCC4)C3)cc1)CC2` [Example 55], the EC50 was below 10 nM.

With `O=C(Nc1c(F)cc(F)cc1F)c1cc2c(s1)-c1ncc(F)cc1N(C(=O)c1ccc(NC(=O)c3cccnc3N3CC4(CCOCC4)C3)cc1)CC2` [Example 56], the EC50 was below 10 nM.

With `O=C(Nc1ccc(C(=O)N2CCc3cc(-c4nc5cccc(Cl)c5[nH]4)sc3-c3ncc(F)cc32)cc1)c1cccnc1N1CC2(CCOCC2)C1` [Example 57], the EC50 lay in the range of 10 to 50 nM.

With `Cc1cnc(N2CC3(CCOCC3)C2)c(C(=O)Nc2ccc(C(=O)N3CCc4cc(-c5nc6ccccc6[nH]5)sc4-c4ncc(F)cc43)cc2)c1` [Example 58], the EC50 was below 10 nM.

Turning to `O=C(Nc1c(F)cc(F)cc1Cl)c1cc2c(s1)-c1ncc(F)cc1N(C(=O)c1ccc(NC(=O)c3cccnc3N3CC4(CCOCC4)C3)cc1)CC2` [Example 59], the EC50 was below 10 nM.

Take `O=C(Nc1ccc(C(=O)N2CCc3cc(-c4nc5cccc(C(F)(F)F)c5[nH]4)sc3-c3ncc(F)cc32)cc1)c1cccnc1N1CC2(CCOCC2)C1` [Example 60]: the EC50 lay in the range of 10 to 50 nM.

On to `Cc1cccc(F)c1NC(=O)c1cc2c(s1)-c1ncc(F)cc1N(C(=O)c1ccc(NC(=O)c3cccnc3N3CC4(CCOCC4)C3)cc1)CC2` [Example 61], for which the EC50 was below 10 nM.

In the case of `O=C(Nc1c(F)cccc1C(F)(F)F)c1cc2c(s1)-c1ncc(F)cc1N(C(=O)c1ccc(NC(=O)c3cccnc3N3CC4(CCOCC4)C3)cc1)CC2` [Example 62], the EC50 is below 10 nM.

Regarding `Cc1cnc(N2CC3(CCOCC3)C2)c(C(=O)Nc2ccc(C(=O)N3CCc4cc(-c5nc6cccc(Cl)c6[nH]5)sc4-c4ncc(F)cc43)cc2)c1` [Example 63], the EC50 is below 10 nM.

With `Cc1cnc(N2CC3(CCOCC3)C2)c(C(=O)Nc2ccc(C(=O)N3CCc4cc(-c5nc6cccc(F)c6[nH]5)sc4-c4ncc(F)cc43)cc2)c1` [Example 64], the EC50 is below 10 nM.

Take `Cc1cnc(N2CC3(CCOCC3)C2)c(C(=O)Nc2ccc(C(=O)N3CCc4cc(C(=O)Nc5c(F)cc(F)cc5Cl)sc4-c4ncc(F)cc43)cc2)c1` [Example 65]: the EC50 is below 10 nM.

Take `Cc1cnc(N2CC3(CCOCC3)C2)c(C(=O)Nc2ccc(C(=O)N3CCc4cc(C(=O)Nc5c(Cl)cccc5Cl)sc4-c4ncc(F)cc43)cc2)c1` [Example 66]: the EC50 was below 10 nM.

`Cc1cnc(N2CC3(CCOCC3)C2)c(C(=O)Nc2ccc(C(=O)N3CCc4cc(C(=O)Nc5c(F)cccc5C(F)(F)F)sc4-c4ncc(F)cc43)cc2)c1` [Example 67]: the EC50 was above 50 nM.

As for `Cc1cnc(N2CC3COCC3C2)c(C(=O)Nc2ccc(C(=O)N3CCc4cc(-c5nc6ccccc6[nH]5)sc4-c4ncc(F)cc43)cc2)c1` (centres unmarked) [Example 68], the EC50 was in the range of 10 to 50 nM.

Turning to `Cc1cnc(N2CC3COCC3C2)c(C(=O)Nc2ccc(C(=O)N3CCc4cc(C(=O)Nc5c(F)cccc5F)sc4-c4ncc(F)cc43)cc2)c1` (centres unmarked) [Example 69], the concentration giving a half-maximal response (EC50) lay within 10 to 50 nM.

For `Cc1cnc(N2CC3(CCOCC3)C2)c(C(=O)Nc2ccc(C(=O)N3CCc4c(sc(C(=O)Nc5c(F)cccc5F)c4F)-c4ncccc43)cc2)c1` [Example 70, N-(2,6-difluorophenyl)-8-fluoro-5-(4-(5-methyl-2-(7-oxa-2-azaspiro[3.5]nonan-2-yl)nicotinamido)benzoyl)-6,7-dihydro-5H-pyrido[3,2-b]thieno[2,3-d]azepine-9-carboxamide], the EC50 is below 10 nM.

With `Cc1cnc(N2CC3(CCOCC3)C2)c(C(=O)Nc2ccc(C(=O)N3CCc4c(sc(-c5nc6ccccc6[nH]5)c4F)-c4ncccc43)cc2)c1` [Example 71], the EC50 was below 10 nM.

For `Cc1cnc(N2CC3(CCOCC3)C2)c(C(=O)Nc2ccc(C(=O)N3CCc4c(sc(C(=O)Nc5ncccc5F)c4F)-c4ncccc43)cc2)c1` [Example 72], the EC50 is below 10 nM.

For `Cc1cnc(N2CC3(CCOCC3)C2)c(C(=O)Nc2ccc(C(=O)N3CCc4c(sc(C(=O)Nc5c(C)cccc5F)c4F)-c4ncccc43)cc2)c1` [Example 73], the EC50 is below 10 nM.

With `Cc1cnc(N2CC3(CCOCC3)C2)c(C(=O)Nc2ccc(C(=O)N3CCc4c(sc(C(=O)Nc5ccccc5)c4F)-c4ncccc43)cc2)c1` [Example 74], the half-maximal effective concentration (EC50) was below 10 nM.

For `Cc1cnc(N2CC3(CCOCC3)C2)c(C(=O)Nc2ccc(C(=O)N3CCc4c(sc(C(=O)Nc5c(C)cccc5C#N)c4F)-c4ncccc43)cc2)c1` [Example 75], the EC50 was below 10 nM.

Consider `Cc1cnc(N2CC3(CCOCC3)C2)c(C(=O)Nc2ccc(C(=O)N3CCc4c(sc(C(=O)Nc5c(F)cccc5Cl)c4F)-c4ncccc43)cc2)c1` [Example 76], for which the EC50 is below 10 nM.

As to `Cc1cnc(N2CC3(CCOCC3)C2)c(C(=O)Nc2ccc(C(=O)N3CCc4c(sc(C(=O)Nc5c(F)cccc5C(F)(F)F)c4F)-c4ncccc43)cc2)c1` [Example 77], the EC50 is 10 to 50 nM.

As to `Cc1cnc(N2CC3(CCOCC3)C2)c(C(=O)Nc2ccc(C(=O)N3CCc4c(sc(-c5nc6cccc(F)c6[nH]5)c4F)-c4ncccc43)cc2)c1` [Example 78], the EC50 is below 10 nM.

On to `Cc1cnc(N2CC3(CCOCC3)C2)c(C(=O)Nc2ccc(C(=O)N3CCc4c(sc(-c5nc6ccc(F)cc6[nH]5)c4F)-c4ncccc43)cc2)c1` [Example 79], for which the EC50 is below 10 nM.

Turning to `Cc1ccc(C(=O)Nc2ccc(C(=O)N3CCc4c(sc(C(=O)Nc5c(F)cccc5F)c4F)-c4ncccc43)cc2)c(N2CC3(CCOCC3)C2)n1` [Example 81], the EC50 was below 10 nM.

For `Cc1ccc(C(=O)Nc2ccc(C(=O)N3CCc4c(sc(-c5nc6ccccc6[nH]5)c4F)-c4ncccc43)cc2)c(N2CC3(CCOCC3)C2)n1` [Example 82], the EC50 is below 10 nM.

Regarding `Cc1ccc(C(=O)Nc2ccc(C(=O)N3CCc4c(sc(C(=O)Nc5c(C)cccc5F)c4F)-c4ncccc43)cc2)c(N2CC3(CCOCC3)C2)n1` [Example 83], the EC50 was below 10 nM.

Turning to `Cc1ccc(C(=O)Nc2ccc(C(=O)N3CCc4c(sc(C(=O)Nc5ncccc5F)c4F)-c4ncccc43)cc2)c(N2CC3(CCOCC3)C2)n1` [Example 84], the EC50 was below 10 nM.
